Results: patent US7601687B2, “Mechanism for identifying drugs for the treatment of type II diabetes” (BioCrine AB, priority 2006, dated 2009)

Tests used:
[1] = tested on: insulin mRNA; test: Endogenous insulin mRNA levels in isolated islets of wild type and βIRKO mice; type: cell-based, mouse; conditions: 16.7 mM glucose or 5 mU insulin/ml
Protocol: (§1) RNA was prepared 60 min after start of stimulation. Amounts of insulin, βGK and β-actln mRNA were quantified by comparative RT-PCR. […] Data are shown as mean values ± S.E. (n=3). (B-D) On-line monitoring of βGK promoter-driven GFP expression (white bars) and insulin promoter-driven DsRed expression (black bars) in co-transfected HIT cells (B,C) or islet cells (B,D).
(§2) Insulin-producing HIT-T15 cells were obtained from ATCC. HIT cells were reported to show glucose responsiveness at subphysiological concentrations between 0.1 and 2 mM (Sharma et al., 1995). HIT cells were grown in RPMI 1640 medium supplemented with 100 units/ml penicillin, 100 μg/ml streptomycin, 2 mM glutamine and 10% fetal calf serum at 5% CO2 and 37° C. Pancreatic islets were isolated from normally fed male Wistar rats and from mice by collagenase digestion. […]
(§3) RNA Analysis Levels of βGK mRNA were analyzed by RNase-protection assays and comparative RT-PCR. […] Quantification of the protected complexes was performed by phosphorimaging. […] Levels of μGK mRNA were analyzed by RT-PCR using primers 5′-[…]-3′(SEQ ID NO: 1) and 5′-[…]-3′(SEQ ID NO: 2) for characterizing μGK mRNA in HIT cells and primers 5′-[…]-3′(SEQ ID NO: 3) and 5′-[…]-3′(SEQ ID NO: 4) for μGK mRNA in rat and mouse pancreatic islets and islet cells. Levels of μ-actin mRNA were analyzed by RT-PCR using primers 5′-[…]-3′(SEQ ID NO: 5) and 5′-[…]-3′(SEQ ID NO: 6). […]

[2] = tested on: βGK mRNA; test: Endogenous βGK mRNA levels in isolated islets of wild type and βIRKO mice; type: cell-based, mouse; conditions: 16.7 mM glucose or 5 mU insulin/ml
Protocol: as §1, §2, §3

[3] = tested on: rat βGK promoter; test: βGK promoter-driven GFP expression in co-transfected human islet cells; type: cell-based; conditions: 5 mU/ml insulin for 5 min, sub-stimulatory glucose
Protocol: Data are presented as the ratio of fluorescence obtained at minutes 240 and 60 and represent mean values ±S.E. (n=11).
Detection of fluorescence by digital imaging fluorescence microscopy was performed as described previously (Leibiger et al., 1998a; Leibiger et al., 1998b). Briefly, transfected cells were grown on 24-mm glass coverslips. After stimulation the coverslips were placed into a perifusion chamber which was mounted on an inverted microscope (Zeiss Axiovert 135TV). Temperature was kept at 37° C. and the cells were perfused with RPMI 1640 medium. The objective lens used was a Zeiss-Fluar ×40/1.30 oil Imm Korr. Fluorescence imaging was performed with a cooled charged-coupled device camera (CH250 with KAF 1400, Photometrics, Tucson, Ariz.) connected to an imaging system (Inovision) with fluorescence excitation from a SPEX fluorolog-2 CM1T11I spectrofluorometer (Spex Industries). […]
On-line monitoring was initiated 60 min following the start of stimulation and the 60-min value of GFP- or DsRed-fluorescence was set to 1.0. Cells to be monitored were chosen randomly at minute 60 from six fields of vision and fluorescence was monitored up to minute 240. By overlaying the fluorescence and phase-contrast images, the position of cells on the coverslip could be checked. Fluorescence intensity was calculated by using the ISee-software for UNIX (Inovision Corporation).

## insulin
[1]; islets from βIRKO mice
  endogenous insulin mRNA levels upon stimulation: no increase
[1]; islets of wild type mice
  endogenous insulin mRNA levels upon stimulation: increase
[2]; islets from βIRKO mice
  endogenous βGK mRNA levels upon stimulation: no increase
[2]; islets of wild type mice
  endogenous βGK mRNA levels upon stimulation: increase
[3]
  βGK promoter-driven GFP expression upon insulin stimulation: up-regulation
